Measured values as given in patent publication US6440967B1, “Combination of a GABAA alpha 5 inverse agonist and COX-2 inhibitor, NSAID, estrogen or vitamin E” (Merck & Co., Inc., priority 1998, dated 2002).

SMILES: Cc1cc(-c2nnc3c4ccccc4c(OCc4cccc(Br)n4)nn23)no1 [Reference Example 2, 6-(6-Bromopyridin-2-yl)methyloxy-3-(5-methylisoxazol-3-yl)-1,2,4-triazolo[3,4-a]phthalazine]
- melting point: 247.5 to 249 °C
